The record followed here is BindingDB's records for patent US20240382465 (Zhejiang Hisun Pharmaceutical, 2024).

The experiment concerns the target T1, UDP-3-O-acyl-N-acetylglucosamine deacetylase (Pseudomonas aeruginosa (strain ATCC 15692 / DSM 22644 / CIP 104116 / JCM 14847 / LMG 12228 / 1C / PRS 101 / PAO1), UniProt P47205).
T1 sequence (P47205 whole entry): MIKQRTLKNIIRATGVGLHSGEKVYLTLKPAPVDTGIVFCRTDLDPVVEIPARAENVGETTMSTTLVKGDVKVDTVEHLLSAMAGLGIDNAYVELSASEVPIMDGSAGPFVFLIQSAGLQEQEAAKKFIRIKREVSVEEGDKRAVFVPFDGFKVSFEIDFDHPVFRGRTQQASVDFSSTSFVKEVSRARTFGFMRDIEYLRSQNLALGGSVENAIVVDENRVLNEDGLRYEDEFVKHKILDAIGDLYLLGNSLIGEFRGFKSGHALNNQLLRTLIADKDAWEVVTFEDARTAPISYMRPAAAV
In words: LpxC Enzymatic Activity Assay. As for the experimental part: The experimental procedure is briefly described as follows: The test compound was first dissolved in DMSO to prepare a 10 mM stock solution. The reaction was carried out in a 96-well microplate. First, 20 μL of recombinant Pseudomonas aeruginosa LpxC (purchased from Signalway Antibody, product number AP74647-2) was added to each well, with a final concentration of 5 nM. 5 μL of the compound to be tested was then added, and the compound was diluted 4 times to 8 concentration points with a concentration range of 0.61-10,000 nM. 5 μL of LpxC substrate UDP-3-O—(R-3-hydroxydecanoyl)-GlcNAc (purchased from Biosynth Carbosynth, product number: mu75071) was added, with a final concentration of the substrate of 10 μM. The plate was incubated at 25° C. for 120 minutes. Then 20 μL of 2.0 mg/mL fluorescamine (purchased from sigmaaldrich, product number: F9015, solvent: 1:1 dimethylformamide/acetonitrile) was added to the reaction system, and mixed well for 10 minutes of reaction. Finally, 50 μL of 200 mM sodium phosphate buffer (pH 8.0) was added to terminate the reaction. Reading was carried out using a microplate reader (BMG), and the excitation and emission wavelengths were 390 and 495 nm respectively.

pIC50: −log10 of the molar value.

As to `C[C@H](O)c1nccn1Cc1cc(-c2ccc(C#Cc3ccc(N4CCN(C)CC4)cc3)cc2)on1` [US20240382465, Example 65], the pIC50 was 7.19.

The compound `C[C@H](O)c1nccn1Cc1cc(-c2ccc(C#Cc3ccc(NC4CCOCC4)cc3)cc2)on1` [US20240382465, Example 66] had a negative logarithm of the IC50 (pIC50) of 7.17.
